Data: patent US9044481B2 (GlaxoSmithKline Biologicals S.A., priority 2009, dated 2015)

Test system: C57BL/6 female mice
Test: Innate cytokines and chemokines in sera of vaccinated mice (SIV-p27 model, AS01B + TLR7-L liposomes)
Assay type: in vivo
Settings: for IL-6 in sera / TNF-α in sera / chemokine MCP-1 in sera: after injection, DPPC liposomes with SIV-p27 and AS01B, vs AS01B reference group
Description: We evaluated the capacity of TLR7 ligands to promote various aspects of the immune response in mice. Innate immunity was specifically investigated to conclude whether lipidated TLR7 compounds were able to induce innate chemokines and pro-inflammatory cytokines. This innate immune response provides the body with initial, non-specific protection against pathogens. Among these innate chemokines and cytokines, type I IFN is thought to be required for the programming of naïve CD8 T-cell with respect to survival, differentiation and memory development.
10.4 ml of lipidated-TLR7-L A1 at 10 mg/ml in chloroform were transferred into a round-bottomed glass vial. To this vial were added 18.4 ml of DPPC solubilised in chloroform at 100 mg/ml. 21.9 ml of lipidated-TLR7-L compound A3 solubilized at 5 mg/ml in chloroform were transferred into a round-bottomed glass vial. To this vial were added 20 ml of DPPC solubilised in chloroform at 100 mg/ml. Chloroform was evaporated in a Büchi Rotavapor under slow decrease of pressure. The obtained film was further dessicated at least overnight in a dessicator under vacuum. After that, the lipid film was slowly hydrated on an orbital shaker (maximal speed: 250 rpm) using 50 mM PO4-100 mM NaCl, pH 7 buffer pre-heated at 60° C.
After completion of resuspension, a swelling step was carried out in order to further increase the phospholipid hydration, it consists of incubating the preparation at room temperature. The suspension was then pre-homogenized using a rotor-stator homogenizer (X620 CAT) for 12 min at 8000 rpm.
Microfluidization was then carried out using a microfluidizer (Model 110S-Serial 90181-Microfluidics Corporation) at 6 bars while keeping the microfluidization chamber at about 40° C. Sterile filtration was achieved on a PES filter (GD/X 0.2 μm, 25 mm, Whatman).
Lipidated molecules A3 and A1 were evaluated in vivo. The SIV-p27-containing formulations summarized in Table 1 were used to vaccinate 6-8 week old C57BL/6 female mice (10/group). The mice received two intramuscular injections of 50 μl, 14 days apart and were bled at different time points after prime and boost as illustrated in FIG. 1.
The innate and adaptive immune responses induced by the formulations containing the TLR7 agonists and the proprietary AS01B adjuvant (QS21+MPL) were also compared to the one induced by the corresponding AS01B-containing formulations and empty DPPC liposomes.

Row | Compound | IL-6 in sera | TNF-α in sera | chemokine MCP-1 in sera | relative potency in enhancing inflammatory cytokines TNF-α and IL-6 (comparison of A1 and A3 in DPPC liposome formulations)
1 | CCCCCCCCCCCCCCCC(=O)OC[C@H](COP(=O)(O)N1CCN(CCn2c(O)nc3c(N)nc(OCCCC)nc32)CC1)OC(=O)CCCCCCCCCCCCCCC [Compound A3, 6-Amino-2-butoxy-9-[1-(1,2-dipalmitoyl-sn-glycero-3-phosphoramido)-4-piperazinylethyl]-8-hydroxypurine] | enhanced | enhanced | enhanced | 
2 | CCCCCCCCCCCCCCCC(=O)OC[C@H](COP(=O)(O)OCCN1CCC(Cn2c(O)nc3c(N)nc(OCCCC)nc32)CC1)OC(=O)CCCCCCCCCCCCCCC [Compound A1] | enhanced | enhanced | enhanced | more potent than A3
